Source: doi:10.1101/2024.09.05.611349v1 (biorxiv, 2024)
Converted amounts (≈) assume the structure as drawn.

Test system: S. aureus ATCC 29213
Assay: microbe, parasite or virus in culture
Conditions: Staphylococcus aureus, ATCC29213, read-out: MIC (µg/mL)
In the case of `CCCCCOc1ccc(CC(=O)NNC(=S)NC(C)=O)cc1` [1p], the MIC is reported as 25 µg/mL (≈ 74.1 µM). Work on `CC(=O)NC(=S)NNC(=O)c1ccc(O)c(O)c1` [1j] yielded an MIC of 100 µg/mL (≈ 371 µM). Work on `CC(=O)NC(=S)NNC(=O)c1ccc(Oc2ccccc2)cc1` [1n] yielded an MIC of 3.12 µg/mL (≈ 9.47 µM). `CCCCCOc1ccc(C(=O)NNC(=S)NC(C)=O)c(C)c1` [1k] showed an MIC of 3.12 µg/mL (≈ 9.25 µM). For `CC(=O)NC(=S)NNC(=O)c1ccc(C2CC2)cc1` [1u], the MIC was 3.12 µg/mL (≈ 11.2 µM). `CCCCCOc1ccc(C(=O)NNC(=S)NC(C)=O)nc1` [1o] gave an MIC of 25 µg/mL (≈ 77.1 µM). Work on `CCCOc1ccc(C(=O)NNC(=S)NC(C)=O)cc1` [B5] yielded an MIC of 6.25 µg/mL (≈ 21.2 µM). `CCCCCOc1ccc(C(=O)NNC(=S)NC(C)=O)cc1O` [1i] showed an MIC of 25 µg/mL (≈ 73.7 µM). `CC(=O)NC(=S)NNC(=O)c1ccc(OCCCC(C)C)cc1` [1e] showed an MIC of 3.12 µg/mL (≈ 9.25 µM). With `CCCCCCOc1ccc(C(=O)NNC(=S)NC(C)=O)cc1` [1c, N-(2-(4-(n-hexoxy)benzoyl)hydrazine-1-carbonothioyl)acetamide] the MIC was 1.56 µg/mL (≈ 4.62 µM). Compound `CC(=O)NC(=S)NNC(=O)c1ccc(N2CCOCC2)cc1` [1x] has an MIC of 100 µg/mL (≈ 310 µM). `CCCCCOc1ccc(C(=O)NNC(=S)NC(C)=O)cc1OCCCCC` [1h] showed an MIC of 6.25 µg/mL (≈ 15.3 µM). For `CCCCCOc1ccc(CCC(=O)NNC(=S)NC(C)=O)cc1` [1q], the MIC was > 100 µg/mL. In the case of `CCC1CCC(c2ccc(C(=O)NNC(=S)NC(C)=O)cc2)CC1` (centres unmarked) [1w, N-(2-(4-(4-ethylcyclohexyl)benzoyl)hydrazine-1-carbonothioyl)acetamide], the MIC is reported as 0.2 µg/mL (≈ 0.576 µM). `CC(=O)NC(=S)NNC(=O)c1cccc(-c2ccccc2)c1` [1s] showed an MIC of 3.12 µg/mL (≈ 9.96 µM). In the case of `CC(=O)NC(=S)NNC(=O)c1ccc(C2CCCCC2)cc1` [1v, N-(2-(4-cyclohexylbenzoyl)hydrazine-1-carbonothioyl)acetamide], the MIC is reported as 0.39 µg/mL (≈ 1.22 µM). With `CC(=O)NC(=S)NNC(=O)c1ccc(OC2CCCCC2)cc1` [1m] the MIC was 1.56 µg/mL (≈ 4.65 µM). `CC(=O)NC(=S)NNC(=O)c1ccc(-c2ccccc2)cc1` [1r] showed an MIC of 1.56 µg/mL (≈ 4.98 µM). For `CCCCOc1ccc(C(=O)NNC(=S)NC(C)=O)cc1` [1a], the MIC was 1.56 µg/mL (≈ 5.04 µM). For `COCCCOc1ccc(C(=O)NNC(=S)NC(C)=O)cc1` [1f], the MIC was > 100 µg/mL. In the case of `CC(=O)NC(=S)NNC(=O)c1ccc2ccccc2c1` [1t], the MIC is reported as 6.25 µg/mL (≈ 21.8 µM). Work on `CCCCCCCCCCCOc1ccc(C(=O)NNC(=S)NC(C)=O)cc1` [1d] yielded an MIC of 100 µg/mL (≈ 245 µM).

Test system: not listed separately
Assay: in vitro
Conditions: mouse, plasma
For `CC(C)[N+](C)(CCOC(=O)C1c2ccccc2Oc2ccccc21)C(C)C` [Propantheline bromide], the half-life was 38.3 min.

Test system: not listed separately
Assay: in vitro
Conditions: mouse, liver microsomes
In the case of `COc1ccc2c(c1)[C@]13CCCC[C@@H]1[C@H](C2)N(C)CC3` [Dextromethorphan], the microsomal CLint is reported as 179 µL/min/mg. Compound `O=C(O)Cc1ccccc1Nc1c(Cl)cccc1Cl` [Diclofenac] has a microsomal CLint of 121 µL/min/mg. `COc1ccc2[nH]c([S+]([O-])Cc3ncc(C)c(OC)c3C)nc2c1` (centres unmarked) [Omeprazole] gave a microsomal CLint of 143 µL/min/mg.

Test system: not listed separately
Assay: in vitro
Conditions: mouse, liver microsomes
Remark: another data set of the same source
For `COc1ccc2c(c1)[C@]13CCCC[C@@H]1[C@H](C2)N(C)CC3` [Dextromethorphan], the half-life was 7.7 min. Compound `O=C(O)Cc1ccccc1Nc1c(Cl)cccc1Cl` [Diclofenac] has a half-life of 11.5 min. In the case of `COc1ccc2[nH]c([S+]([O-])Cc3ncc(C)c(OC)c3C)nc2c1` (centres unmarked) [Omeprazole], the half-life is reported as 9.7 min.
